The values below come from EPA's ToxRefDB 2.

Bounds are passed on as bounds.

The subject of series [1] is rat. The note with it: Subchronic oral toxicity in rodents, fischer, Feed, dose end: 26 week, group: systemic.
In series [2] the test system is rat. The note with it: Carcinogenicity, fischer, Oral, Feed, dose end: 78 week, group: systemic.
The subject of series [3] is mouse. The settings on record: Carcinogenicity, b6c3f1, Oral, Feed, dose end: 80 week, group: systemic.
Series [4] deals with rat. The settings on record: Combined chronic toxicity/carcinogenicity, wistar, Oral, Feed, dose end: 104 week, group: systemic.
The subject of series [5] is rat. The settings on record: Prenatal developmental toxicity study, wistar, Oral, Gavage/Intubation, dose end: 15 GD.
The test system of another series is rabbit. The note with it: Prenatal developmental toxicity study, chinchilla, Oral, Gavage/Intubation, dose end: 18 GD, group: maternal.
Series [6] relates to rat. The settings on record: Combined chronic toxicity/carcinogenicity, fischer, Oral, Feed, dose end: 2 year, group: systemic.
Series [7] has as its system dog. The settings on record: Chronic toxicity; beagle; Oral; Feed; dose end: 52 week; group: systemic; systemic / in life observation / clinical signs / abnormal gait + systemic / in life observation / clinical signs / abnormal posture + ….
The subject of series [8] is dog. The note with it: Subchronic oral toxicity in nonrodent, beagle, Feed, dose end: 13 week, group: systemic, systemic / in life observation / clinical signs / abnormal gait + systemic / in life observation / clinical signs / impaired reflex, nos + ….
For series [9], the system named is dog. The note with it: Chronic toxicity, beagle, Oral, Feed, dose end: 52 week, group: systemic.
The subject of series [10] is mouse. The settings on record: Carcinogenicity, cd1, Oral, Feed, dose end: 80 week, group: systemic.
Series [11] has as its system rat. The note with it: Multigenerational reproductive toxicity study, wistar, Oral, Feed, dose end: 3 generation.
Series [12] relates to rat. The settings on record: Subchronic oral toxicity in rodents, wistar, Feed, dose end: 13 week.
In series [13] the test system is dog. The settings on record: Chronic toxicity, beagle, Oral, Feed, dose end: 26 week, group: systemic.
Series [14] concerns mouse. The settings on record: Combined chronic toxicity/carcinogenicity, other, Oral, Feed, dose end: 23 month, group: systemic.
In series [15] the test system is rat. The note with it: Sub-acute repeat dose toxicity, Oral, Gavage/Intubation, dose end: 4 day, group: systemic.
Series [16] deals with rat. The settings on record: Sub-acute repeat dose toxicity, Oral, Gavage/Intubation, dose end: 4 day, group: systemic. The source holds these as a separate data set.
Series [17] has as its system rat. The note with it: Sub-acute repeat dose toxicity, Oral, Gavage/Intubation, dose end: 4 day, group: systemic. This is another data set of the same source.
Series [18] relates to rat. The note with it: Sub-acute repeat dose toxicity, Oral, Gavage/Intubation, dose end: 4 day, group: systemic. This is another data set of the same source.
Series [19] relates to rat. The settings on record: Sub-acute repeat dose toxicity, sprague dawley, Oral, Gavage/Intubation, dose end: 4 week, group: systemic.
In series [20] the test system is dog. The note with it: Sub-acute repeat dose toxicity; beagle; Oral; Gavage/Intubation; dose end: 4 week; group: systemic; systemic / clinical chemistry / alanine aminotransferase (alt/sgpt) / alanine aminotransferase (alt/sgpt) + systemic / clinical chemistry / ….
Setting [21] is: systemic / clinical chemistry / glucose / glucose + systemic / clinical chemistry / potassium / potassium + systemic / clinical chemistry / ….
[22] abbreviates: systemic / hematology / hematocrit (hct) / hematocrit (hct) + systemic / hematology / leukocyte (wbc) count differential / leukocyte (wbc….
The mark [23] stands for this setting: systemic / in life observation / body weight / body weight + systemic / in life observation / mortality / mortality + systemic / pathology ….
Where [24] appears, read: systemic / pathology microscopic / liver / hepatocellular carcinoma + systemic / pathology microscopic / liver / neoplastic nodule + ….
Setting [25] is: systemic / pathology microscopic / blood / lymphoma malignant + systemic / pathology microscopic / liver / hepatocellular carcinoma.
Where [26] appears, read: systemic / pathology microscopic / liver / hepatocellular carcinoma.
Where [27] appears, read: systemic / in life observation / body weight / body weight + systemic / clinical chemistry / [other] / [other] + systemic / organ weight / ….
[28] abbreviates: group: developmental, developmental / developmental malformation / bone / enlarged fontanel + developmental / developmental malformation / bone / incomplete ….
The mark [29] stands for this setting: group: maternal, systemic / in life observation / body weight / body weight gain + systemic / in life observation / food consumption / food consumption + ….
[30] abbreviates: systemic / in life observation / body weight / body weight gain + systemic / in life observation / food consumption / food consumption + ….
Where [31] appears, read: systemic / in life observation / body weight / body weight + systemic / in life observation / body weight / body weight gain + systemic / in….
Setting [32] is: systemic / in life observation / clinical signs / ataxia + systemic / in life observation / clinical signs / defecation (diarrhea) + ….
Setting [33] is: systemic / in life observation / body weight / body weight gain.
The mark [34] stands for this setting: systemic / in life observation / body weight / body weight gain + systemic / pathology gross / ear / lesion(s) (nos) + systemic / pathology ….
The mark [35] stands for this setting: group: offspring, developmental / offspring survival late / viability index / viability index + systemic / in life observation / body weight / offspring (pup….
Where [36] appears, read: group: offspring, systemic / in life observation / body weight / offspring (pup) weight gain + developmental / offspring survival late / viability index / ….
The mark [37] stands for this setting: group: parental, systemic / in life observation / body weight / body weight.
The mark [38] stands for this setting: group: cholinesterase, cholinesterase / cholinesterase / cholinesterase / cholinesterase (che).
Setting [39] is: group: systemic, systemic / clinical chemistry / chloride / chloride.
The mark [40] stands for this setting: systemic / in life observation / clinical signs / defecation (diarrhea) + systemic / in life observation / clinical signs / stiffness + ….
The mark [41] stands for this setting: systemic / clinical chemistry / alkaline phosphatase (alp/alk) / alkaline phosphatase (alp/alk).
Setting [42] is: systemic / clinical chemistry / alkaline phosphatase (alp/alk) / alkaline phosphatase (alp/alk) + systemic / in life observation / body ….
The mark [43] stands for this setting: systemic / organ weight / liver / absolute.
Setting [44] is: systemic / organ weight / liver / absolute + systemic / pathology microscopic / liver / necrosis.
The mark [45] stands for this setting: systemic / in life observation / clinical signs / abnormal respiratory sounds + systemic / in life observation / clinical signs / fur (….
Setting [46] is: systemic / pathology microscopic / liver / necrosis.
[47] abbreviates: systemic / clinical chemistry / alanine aminotransferase (alt/sgpt) / alanine aminotransferase (alt/sgpt) + systemic / clinical chemistry / ….
Where [48] appears, read: systemic / organ weight / liver / absolute + systemic / organ weight / liver / relative to body weight + systemic / organ weight / liver / ….

In the case of `Nc1ccc2c(c1)C(=O)c1ccccc1C2=O` [2-Aminoanthraquinone], the LEL with rat [1] (setting [21]) turned out to be 500 mg/kg/day; with rat [2] (setting [23]), 100 mg/kg/day; with mouse [3] (setting [26]) it was 750 mg/kg/day. The NEL was below 500 mg/kg/day with rat [1] (setting [21]), below 100 mg/kg/day in the series on rat [2] (setting [23]) and below 750 mg/kg/day with mouse [3] (setting [26]). The LOAEL was above 1000 mg/kg/day in the series on rat [1] (setting [22]), above 345 mg/kg/day in the series on rat [2] (setting [24]) and above 1500 mg/kg/day in the series with mouse [3] (setting [25]). Moreover, the NOAEL with rat [1] (setting [22]) is at least 1000 mg/kg/day; with rat [2] (setting [24]) it was at least 345 mg/kg/day; in the series on mouse [3] (setting [25]), at least 1500 mg/kg/day.
Turning to `CC1(C)C(C=C(Cl)Cl)C1C(=O)OC(C#N)c1ccc(F)c(Oc2ccccc2)c1` (stereo unspecified) [Cyfluthrin], the LOAEL in the series with rat [4] (systemic / in life observation / body weight / body weight) stood at 19.2 mg/kg/day; in the series with rat [5] (setting [28]), 40 mg/kg/day; in the series with rat [5] (group: maternal, systemic / in life observation / body weight / body weight gain + systemic / in life observation / food consumption / food consumption), 10 mg/kg/day; in the series with rabbit (systemic / in life observation / body weight / body weight gain + systemic / in life observation / food consumption / food consumption) it was 60 mg/kg/day; with rat [6] (systemic / in life observation / body weight / body weight + systemic / in life observation / body weight / body weight gain), 11.6 mg/kg/day; in the series on dog [7], 10.6 mg/kg/day. Also, the LOAEL is 13.9 mg/kg/day in the series on dog [8]; 16 mg/kg/day with dog [9] (systemic / in life observation / clinical signs / ataxia); 115 mg/kg/day with mouse [10] (setting [34]); 12.3 mg/kg/day in the series on rat [11] (setting [35]); 37.2 mg/kg/day in the series on rat [11] (group: parental, systemic / in life observation / body weight / body weight gain); above 38.9 mg/kg/day with rat [12] (setting [38]). Moreover, the LOAEL with rat [12] (group: systemic, systemic / in life observation / body weight / body weight gain + systemic / in life observation / clinical signs / lack of coordination + …) is 38.9 mg/kg/day; in the series on dog [13] (setting [40]), 15 mg/kg/day; with mouse [14] (setting [42]), above 194 mg/kg/day. In addition, the LEL in the series with rat [4] (systemic / in life observation / body weight / body weight + systemic / clinical chemistry / [other] / [other]) was found to be 6.19 mg/kg/day; in the series with rat [5] (setting [28]), 40 mg/kg/day; in the series on rat [5] (setting [29]), 10 mg/kg/day; with rabbit (setting [30]) it was 60 mg/kg/day; in the series on rat [6] (systemic / in life observation / body weight / body weight + systemic / in life observation / body weight / body weight gain + systemic / …) it was 11.6 mg/kg/day; in the series on dog [7], 10.6 mg/kg/day. For the same compound, the LEL worked out at 13.9 mg/kg/day in the series with dog [8]; 16 mg/kg/day with dog [9] (setting [32]); 31.9 mg/kg/day with mouse [10] (setting [33]); 3.8 mg/kg/day with rat [11] (setting [36]); 3.8 mg/kg/day with rat [11] (setting [37]); 38.9 mg/kg/day in the series with rat [12] (setting [38]). The LEL was determined as 2.3 mg/kg/day with rat [12] (setting [39]), 5 mg/kg/day in the series with dog [13] (systemic / organ weight / thymus / absolute) and 11.6 mg/kg/day in the series with mouse [14] (setting [41]). In addition, the NEL in the series on rat [4] (setting [27]) was determined as 2.02 mg/kg/day; in the series with rat [5] (setting [28]), 10 mg/kg/day; with rat [5] (setting [29]), 3 mg/kg/day; in the series on rabbit (setting [30]), 20 mg/kg/day; in the series with rat [6] (setting [31]), 2.6 mg/kg/day; in the series with dog [7] it was 2.43 mg/kg/day. The NEL was 2.36 mg/kg/day in the series on dog [8]; 4 mg/kg/day in the series on dog [9] (setting [32]); below 31.9 mg/kg/day in the series on mouse [10] (setting [33]); below 3.8 mg/kg/day in the series with rat [11] (setting [36]); below 3.8 mg/kg/day with rat [11] (setting [37]); 9.5 mg/kg/day with rat [12] (setting [38]). In addition, the NEL in the series with rat [12] (setting [39]) was below 2.3 mg/kg/day; in the series with dog [13] (setting [40]), 1.62 mg/kg/day; in the series on mouse [14] (setting [41]), below 11.6 mg/kg/day. Moreover, the NOAEL in the series on rat [4] (setting [27]) came to 6.19 mg/kg/day; with rat [5] (setting [28]) it was 10 mg/kg/day; in the series on rat [5] (setting [29]), 3 mg/kg/day; in the series with rabbit (setting [30]) it was 20 mg/kg/day; in the series on rat [6] (setting [31]), 2.6 mg/kg/day; in the series with dog [7] it was 2.43 mg/kg/day. In addition, the no observed adverse effect level (NOAEL) is 2.36 mg/kg/day with dog [8]; 4 mg/kg/day in the series on dog [9] (setting [32]); 31.9 mg/kg/day in the series with mouse [10] (setting [34]); 3.8 mg/kg/day in the series with rat [11] (setting [35]); 12.3 mg/kg/day in the series with rat [11] (group: parental, systemic / in life observation / body weight / body weight gain + systemic / in life observation / body weight / body weight); at least 38.9 mg/kg/day in the series on rat [12] (setting [38]). The no-observed-adverse-effect level (NOAEL) in the series with rat [12] (group: systemic, systemic / clinical chemistry / chloride / chloride + systemic / in life observation / body weight / body weight gain + systemic / in life …) was 9.5 mg/kg/day; in the series with dog [13] (setting [40]), 5 mg/kg/day; with mouse [14] (setting [42]), at least 194 mg/kg/day.
As for `CNCc1ccc(S(C)(=O)=O)cc1Oc1ccc(Cl)c(C)c1C`, the LOAEL in the series with rat [15] (setting [43]) was above 100 mg/kg/day; with rat [16] (setting [45]) it was above 500 mg/kg/day; in the series on rat [17] (setting [45]), above 500 mg/kg/day; in the series with rat [18] (setting [45]), above 500 mg/kg/day. Also, the no observed adverse effect level (NOAEL) was at least 100 mg/kg/day with rat [15] (setting [43]), at least 500 mg/kg/day in the series with rat [16] (setting [45]), at least 500 mg/kg/day in the series with rat [17] (setting [45]) and at least 500 mg/kg/day in the series with rat [18] (setting [45]). The LEL in the series on rat [15] (setting [44]), in the series on rat [16] (setting [46]), with rat [17] (setting [46]) and in the series with rat [18] (setting [46]) was 30 mg/kg/day each time. Moreover, the NEL with rat [15] (setting [44]), with rat [16] (setting [46]), in the series on rat [17] (setting [46]) and with rat [18] (setting [46]) was below 30 mg/kg/day in each case.
With `O=C(NC(=O)c1cc(F)c(F)cc1Cl)Nc1cc(F)ccc1N1CCC(C(=O)O)CC1` [AVE2865], in the series with rat [19] (setting [47]), the LOAEL came to 35 mg/kg/day and the no observed adverse effect level (NOAEL) was 5 mg/kg/day. In addition, in the series on rat [19] (setting [48]), the LEL came out at 5 mg/kg/day and the NEL is below 5 mg/kg/day. In the series with dog [20], the LEL stood at 1 mg/kg/day, the lowest-observed-adverse-effect level (LOAEL) was above 10 mg/kg/day, the NEL is below 1 mg/kg/day and the NOAEL was at least 10 mg/kg/day.

As usually defined, the LOAEL is the lowest dose or exposure tested at which an adverse effect was seen. Broadly, the NOAEL is the highest dose or exposure tested at which no adverse effect was seen.
